Experimental data: patent US20090162421A1, “DRUGS AS WELL AS THEIR PRODUCTION AND USE IN THE TREATMENT OF PAIN-ASSOCIATED NEUROPATHIES” (PAZ Arzneimittel-Entwicklungsgesellschaft mbH, priority 2007, published 2009)

How the values were obtained:
[1] = test system: spared nerve injury model of peripheral neuropathic pain; experiment: Spared Nerve Injury model (SNI model), treatment day 10 to 21 postoperatively (Example 1); format: in vivo, rats; conditions: for reduction of allodynia: day 10 to 21 postoperatively
Text: (§1) The Chronic Constriction Injury model (CCI model) [Bennet G J, Xie Y K: A peripheral mononeuropathy in rat that produces disorders of pain sensation like those seen in man. Pain 1988, 33:87-107] and the Spared Nerve Injury model (SNI model) [Decosterd I, Woolf C J: Spared Nerve injury: an animal model of persistent peripheral neuropathic pain. Pain 2000, 87:149-158] were used as animal models that show essential elements of the clinical pain syndromes in the presence of neuropathies. In both models, the animals sustain defined nerve damage by surgical means. The pain behavior of the animals can be used to quantitatively measure the efficacy of substances in pain-associated neuropathies. The investigations were carried out on rats according to the published models. […] The same is not true of most other species of laboratory animals.
(§2) In a first series of experiments, the animals sustained a nerve lesion by surgical means according to the SNI model and according to the CCI model. From day 10 to day 21 postoperatively, groups of 12 animals each received intraperitoneal administrations of the test substances twice daily. In tests according to the SNI model, in each application, 2.5, 4.5 or 9 mg tarenflurbil (referred to as RF2.5, RF4.5, and RF9), 4.5 mg S-flurbiprofen (SF4.5), pure vehicle (vehicle—as control) or 25 mg gabapentin (Gaba25—as reference substance), each per kg of body weight, were administered. The behavioral parameters that are typical of pain-associated neuropathies were measured, namely mechanical allodynia using Frey's aestesiometer, cold allodynia using the acetone test, and cold hyperalgesia using the cold plate at 2° C. In tests according to the CCI model, 4.5 or 9 mg/kg body weight of tarenflurbil (RF4.5 and RF9), 9 mg/kg body weight S-flurbiprofen (SF9) or vehicle (vehicle) were administered per group. As before, mechanical/static allodynia, cold allodynia and cold hyperalgesia were measured using Frey's hair test, the acetone test, and the cold plate at 2° C., respectively.

[2] = test system: spared nerve injury model of peripheral neuropathic pain; experiment: SNI model, treatment from the first postoperative day for two weeks (Example 2); format: in vivo, rats
Method: In another series of experiments, animals having sustained nerve damage according to the SNI model were treated twice daily with intraperitoneal doses of 9 mg/kg body weight tarenflurbil or vehicle from the first postoperative day and for a period of two weeks. Both the mechanical dynamic allodynia (on the ipsilateral and on the contralateral side) and the cold allodynia (ipsilateral only) were measured by means of Frey's aesthesiometer and the cold plate at 10° C., respectively.

[3] = test system: chronic constriction injury model of peripheral neuropathic pain; experiment: Chronic Constriction Injury model (CCI model), treatment day 10 to 21 postoperatively (Example 1); format: in vivo; conditions: rats
Text: as §1, §2

[4] = test system: rats that had not sustained damage; experiment: Single dose in rats that had not sustained damage (Example 3); format: in vivo; conditions: undamaged rats, single i.p. dose of 9 mg/kg, up to 6 hours after application
Method: For qualification of the series' of experiments mentioned above, a single dose of 9 mg/kg body weight tarenflurbil (RF9) or vehicle (vehicle) was applied intraperitoneally in another series of experiments on rats that had not sustained damage and the mechanical allodynia and the heat sensitivity were measured for up to 6 hours after the application using Frey's aesthesiometer and the Hargreaves model, respectively. […] This means that the effects measured for tarenflurbil in Examples 1 and 2 are exclusively related to the effect in pain-associated neuropathies.

[5] = rats; cited from earlier work
[6] = humans; cited from earlier work
[7] = design: species or system rats; conditions: rat, in vivo, ip, 4.5 mg/kg
[8] = SNI model, rats, 4.5 mg/kg twice daily i.p.
[9] = summary statement for the pharmacological models

| SMILES | effect on allodynia compared with tarenflurbil ([1]; SNI model, rats, 25 mg/kg twice daily i.p., positive control) | mechanical allodynia, contralateral side, vs vehicle ([2]; 9 mg/kg twice daily i.p. from first postoperative day for two weeks) | mechanical allodynia, ipsilateral side, vs vehicle ([2]; 9 mg/kg twice daily i.p. from first postoperative day, entire treatment period of two weeks, Frey's aesthesiometer) | cold allodynia, ipsilateral side, vs vehicle ([2]; 9 mg/kg twice daily i.p. from first postoperative day, entire treatment period of two weeks, cold plate at 10° C.) | time until pain-relieving effect falls to pain intensity of the vehicle group ([2]; after completion of two weeks of 9 mg/kg twice daily i.p.) | reduction of allodynia ([3]; 4.5 mg/kg twice daily i.p.) | reduction of allodynia ([3]; 9 mg/kg twice daily i.p.) | reduction of allodynia [1, 8] | reduction of allodynia ([1]; SNI model, rats, 9 mg/kg twice daily i.p.) | efficacy relative to reference substance gabapentin ([1]; if dosed sufficiently, vs 25 mg/kg body weight gabapentin) | effect in models of pain-associated neuropathies (dose dependence) [1, 9] | mechanical allodynia vs vehicle ([4]; Frey's aesthesiometer) | heat sensitivity vs vehicle ([4]; Hargreaves model) | inversion of tarenflurbil to S-flurbiprofen [5] | inversion of the R-form to the S-form under in vivo conditions [6] | effect in models of pain-associated neuropathies [1, 9] | gastrointestinal bleeding [7] |
| --- | --- | --- | --- | --- | --- | --- | --- | --- | --- | --- | --- | --- | --- | --- | --- | --- | --- |
| NCC1(CC(=O)O)CCCCC1 [Gabapentin, gabapentin, reference compound] | no significant difference from tarenflurbil |  |  |  |  |  |  |  |  |  |  |  |  |  |  |  |  |
| C[C@@H](C(=O)O)c1ccc(-c2ccccc2)c(F)c1 [tarenflurbil] |  | no difference | significantly different effect from vehicle | significantly different effect from vehicle | eight days after the end of treatment | significant reduction | significant reduction | significant reduction | significant reduction | in the range of the efficacy of 25 mg/kg body weight gabapentin | dose-dependent effect | no significant differences | no significant differences | basically do not invert | no or no more than extremely minor inversion |  |  |
| C[C@H](C(=O)O)c1ccc(-c2ccccc2)c(F)c1 [S-flurbiprofen, reference compound] |  |  |  |  |  |  | no significant effect | no significant effect |  |  |  |  |  |  |  | does not show a significant effect | gastrointestinal bleeding in some animals |
